Assay results from patent US9279807B2, “Materials and methods for the treatment of celiac disease” (ALBA THERAPEUTICS CORPORATION, priority 2006, dated 2016).
Entries after “also recorded” stand apart in the source; their conditions may differ. Residues, ends and D or L forms follow the SMILES beside them.

Experiments:
[1] = system: rats; assay: Toxicity studies in rats; type: in vivo, rat
From the text: Toxicity studies have been performed in rats and Beagle dogs. […] Any alterations in clinical chemistry, hematology, coagulation, urinalysis and organ weight data were considered coincidental based on absence of dose-response relationships and absence of histopathological changes.

[2] = system: Beagle dogs; assay: Toxicity studies in Beagle dogs; type: in vivo, dog
From the text: […] […] Any alterations in clinical pathology profiles were considered coincidental in nature. No alterations in absolute or relative organ weight data were detected.

[3] = biological target: T1, potassium selective IKr current (hERG) (Homo sapiens, UniProt Q12809); assay: hERG test; type: cell-based; conditions: up to 1 ng/mL, stably transfected, normoxic conditions
T1 construct: expressed in transfected cells; host or cells: HEK 203 cells (so in the source)
From the text: (§1) Two safety pharmacology studies for cardiotoxicity effects have been performed.

[4] = system: rabbits; assay: Cardiovascular effects in unconscious female rabbits; type: in vivo, rabbit; conditions: intravenous, doses up to 1 mg/kg
From the text: as §1

[5] = system: healthy adults; assay: Single dose safety trial in healthy adults (CLIN1001-001); type: in vivo, human
From the text: The single dose trial was a double-blind, placebo controlled, randomized trial of 24 healthy adults. […] All AEs reported in this study resolved without concomitant therapy. Headache was the most common AE experienced, reported one time each by 3 (13%) subjects.

[6] = system: healthy adults; assay: Multi-dose safety trial in healthy adults (CLIN1001-003); type: in vivo, human; conditions: 24 healthy adults, 250 μg, 1, or 4 mg or placebo three times a day
From the text: The multi-dose trial was a double-blind, placebo controlled, randomized trial of 24 healthy adults. […] Reported AEs were all mild and headache was the most common AE.

[7] = Plasma drug levels, multi-dose trial; type: in vivo, human; conditions: 3 times a day for 10 days; llq 0.5 ng/ml
[8] = Stability of drug substance; type: physicochemical; conditions: room temperature
[9] = Absorption and systemic toxicity in animals, FITC labeling; type: in vivo
[10] = system: CD subjects
From the text: One cohort of 24 subjects was planned, with a 2:1 randomization (drug:placebo) for once daily dosing on Days 1, 2 and 3. On Day 2, all subjects would receive a 2.5 gram oral gluten challenge in single blind fashion.
Safety measures included monitoring of AEs, standard clinical panels for chemistry, hematology, and urinalysis, pregnancy screening, EKG, vital signs and physical exam findings.
Spontaneous adverse events collected throughout the study were categorized according to WHO adverse reaction terminology and evaluated for duration, intensity, and possible association with the study drug per ICH guidelines. In addition, the following procedures were performed at various points throughout the course of the study: vital signs, complete physical exams, 12-lead electrocardiograms, full clinical (safety) laboratory analyses, serum pregnancy, urine drug screen and HIV and hepatitis serologies.
All adverse events reported during the study were listed, documenting course, severity, and outcome and summarized by treatment, giving the number of subjects who experienced an adverse event, the maximum severity, and body system. GI adeverse events for each arm were tabulated by subject count and compared via Fisher's exact test.
EKG results were classified as normal and abnormal. PR, RR, QRS, QT, and QTc intervals will be carefully examined and abnormalities tabulated.

[11] = system: human peripheral lymphocytes; assay: In vitro chromosome aberration study; conditions: up to 1200 μg, with and without metabolic activation
[12] = system: Salmonella and E. coli strains; assay: Ames test (bacterial reverse mutation assay); conditions: up to 5000 μg per plate, with and without metabolic activation
[13] = system: Celiac Disease subjects; assay: Phase IIa multiple dose POC study (CLIN1001-004), safety
From the text: Study drug will be dispensed to subjects for fourteen (14) days of treatment. Study drug will be administered three times a day. […] Gluten or gluten placebo will be taken during each meal. Subjects will remain on their gluten-free diet throughout the duration of the trial.
All adverse events reported during the study will be listed, documenting course, severity, and outcome. Adverse events will be summarized by treatment, the MedDRA system organ class, and maximum severity. Laboratory parameters, vital signs, EKG assessments, and physical exam results will be summarized with descriptive statistics as appropriate.

[14] = oral once daily for 28 days up to 1000 mg/kg
[15] = dogs, up to 9 mg/kg daily for 4 weeks
[16] = 24 healthy adults, 3, 12, or 36 mg or placebo, single dose
[17] = CD subjects, 12 mg once daily Days 1-3, N = 14
[18] = Related = Possible, probably, definite combined causalities, 12 mg, N = 14
[19] = Phase IIa, preliminary observations

T1 sequence (Q12809 whole entry): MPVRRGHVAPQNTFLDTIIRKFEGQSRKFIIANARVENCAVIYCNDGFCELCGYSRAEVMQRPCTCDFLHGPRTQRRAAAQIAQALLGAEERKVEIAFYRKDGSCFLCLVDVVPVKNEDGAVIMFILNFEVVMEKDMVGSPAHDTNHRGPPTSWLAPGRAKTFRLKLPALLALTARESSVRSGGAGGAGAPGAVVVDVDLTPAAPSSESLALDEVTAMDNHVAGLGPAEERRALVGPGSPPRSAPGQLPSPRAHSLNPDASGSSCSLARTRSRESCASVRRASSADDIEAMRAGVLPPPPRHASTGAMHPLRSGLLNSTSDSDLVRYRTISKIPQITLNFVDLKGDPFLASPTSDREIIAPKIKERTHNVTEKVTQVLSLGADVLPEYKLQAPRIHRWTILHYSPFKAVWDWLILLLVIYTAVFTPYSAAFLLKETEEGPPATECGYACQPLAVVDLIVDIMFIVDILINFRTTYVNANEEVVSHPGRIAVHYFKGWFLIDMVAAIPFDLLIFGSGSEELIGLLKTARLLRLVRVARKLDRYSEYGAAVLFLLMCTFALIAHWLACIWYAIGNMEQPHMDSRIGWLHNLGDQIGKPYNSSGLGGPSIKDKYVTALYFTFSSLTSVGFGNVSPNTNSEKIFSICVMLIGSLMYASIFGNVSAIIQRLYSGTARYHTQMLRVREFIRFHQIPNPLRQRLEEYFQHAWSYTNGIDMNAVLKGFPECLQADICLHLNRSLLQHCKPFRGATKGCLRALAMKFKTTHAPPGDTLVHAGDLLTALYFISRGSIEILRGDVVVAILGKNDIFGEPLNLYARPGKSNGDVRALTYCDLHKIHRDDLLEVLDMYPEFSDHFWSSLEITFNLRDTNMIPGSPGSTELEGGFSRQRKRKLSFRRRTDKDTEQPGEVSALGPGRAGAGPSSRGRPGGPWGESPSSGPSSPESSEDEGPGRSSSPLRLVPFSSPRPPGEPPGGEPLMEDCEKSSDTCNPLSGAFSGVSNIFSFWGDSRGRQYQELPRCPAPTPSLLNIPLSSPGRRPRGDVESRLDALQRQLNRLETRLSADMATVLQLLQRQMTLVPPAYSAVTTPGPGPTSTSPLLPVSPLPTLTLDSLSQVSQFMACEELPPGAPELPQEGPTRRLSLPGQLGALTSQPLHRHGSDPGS

Which “Body weight gain in recovery group” value ([1]; 28 day study, males at week 8 (recovery week 4)) does the source give for `CC(C)C[C@H](NC(=O)[C@@H](NC(=O)CNC(=O)CN)C(C)C)C(=O)N[C@H](C(=O)N[C@@H](CCC(N)=O)C(=O)N1CCC[C@H]1C(=O)NCC(=O)O)C(C)C` [AT-1001] (H-GGVLVQPG-OH) here?
The value was “body weight gain was lower in the dose males at week 8”.

And the “Treatment-related findings, 14 day repeat-dose study” value ([1]; oral gavage once daily for 14 days up to 1000 mg/kg)?
The value was “no treatment-related clinical observations, clinical pathology changes, body weight or weight gain changes, organ weight changes, or gross or microscopic tissue changes”.

What about the “Food consumption, body weights/gains, ophthalmic observations” value [1, 14] of the same compound?
Its value is “unaffected by treatment”.

And the “Gross necropsy or histopathology findings” value [1, 14]?
Its value is “No gross necropsy or histopathology findings were considered to be treatment-related”.

And the Treatment-related deaths [1, 14]?
The Treatment-related deaths was “No treatment-related deaths occurred”.

What about the “Clinical observations, clinical chemistry, gross postmortem observations” value ([1]; single dose intravenously up to 5 mg/kg) of the same compound?
Its value is “no clinical observations, clinical chemistry changes, or gross postmortem observations”.

And the Signs of toxicity ([2]; Beagle dogs, single dose up to 5 mg/kg intravenously, observed 14 days)?
Its Signs of toxicity is “no signs of toxicity were observed”.

What about the “Clinical signs of toxicity” value ([2]; dogs, enteric-coated beads 20 mg/kg day 1, 40 mg/kg day 2) of the same compound?
Its value is “no clinical signs of toxicity were noted”.

What about the “Total protein and globulin levels” value ([2]; dogs, enteric-coated beads 20 mg/kg day 1, 40 mg/kg day 2, 24 hr after 40 mg/kg) of the same compound?
Its value is “slightly elevated”.

What about the “Treatment-related deaths and appearance” value ([2]; dogs, enteric-coated beads orally up to 9 mg/kg daily for 4 weeks) of the same compound?
Its value is “No treatment-related deaths occurred and all dogs appeared normal”.

What about the “Body weights, body weight gains, ophthalmic observations and EKG readings” value [2, 15] of the same compound?
Its value is “unaffected by treatment”.

And the “Gross necropsy or histopathology findings” value [2, 15]?
Its value is “None of the gross necropsy or histopathology findings were considered to be treatment-related”.

And the “Effect on IKr current” value [3]?
Its value is “None of the concentrations of AT-1001 caused statistically significant effects”.

And the “Effects on the EKG” value [4]?
Its value is “no notable effects”.

What about the Serious adverse events [5, 16] of the same compound?
The Serious adverse events was “No Serious Adverse Events (SAEs)”.

And the “Severity of adverse events” value [5, 16]?
Its value is “mild or moderate in severity”.

What about the “Clinically significant trends (clinical laboratory, vital sign, EKG, physical examination)” value ([5]; single dose trial) of the same compound?
The value was “No clinically significant treatment-related trends; also recorded: No Clinically Significant trends related to safety”.

And the Serious adverse events [6]?
The Serious adverse events was “No Serious Adverse Events (SAEs)”.

And the “Severity of adverse events” value [6]?
Its value is “all mild in severity”.

What about the Plasma drug levels [7] of the same compound?
Its Plasma drug levels is “No measurable plasma drug levels”.

What about the Stability [8] of the same compound?
Its Stability is “up to 1 year”.

And the “Passage into the submucosa or the vasculature” value ([9]; fluorescent FITC labeling)?
The value was “measurable amounts of the antagonist do not cross into the submucosa or the vasculature”.

And the Systemic toxicities ([9]; supra-therapeutic dosing in animals)?
Its Systemic toxicities is “devoid of significant systemic toxicities”.

And the Systemic absorption ([9]; supra-therapeutic dosing in animals, multi-particulate oral formulation)?
The Systemic absorption was “not systemically absorbed to any significant extent”.

And the solubility?
The solubility was over 1000 µg/mL.

And the “Overall safety and tolerability” value ([10]; 12 mg in CD subjects)?
The value was “generally safe, well tolerated”.

What about the “(%) of serious AEs” value ([10]; 12 mg, N = 14) of the same compound?
Its value is “(0) %”.

And the “Number of serious AEs” value ([10]; 12 mg, N = 14)?
Its value is 0.

What about the “Gastrointestinal Disorders, Subject Count (%)” value ([10]; 12 mg, N = 14, p 0.018 vs placebo) of the same compound?
The value was 6 (43%).

What about the “Number of subjects reporting an AE” value ([10]; CD subjects, 12 mg once daily Days 1-3, 2.5 g gluten Day 2, N = 14) of the same compound?
The value was 10.

And the “(%) of subjects discontinued study due to AE” value [10, 17]?
Its value is “(0) %”.

What about the “(%) of subjects reporting an AE” value [10, 17] of the same compound?
The value was “(71) %”.

What about the “Number of subjects discontinued study due to AE” value [10, 17] of the same compound?
Its value is 0.

And the “Total number of AEs reported” value [10, 17]?
Its value is 32.

What about the “Abdominal Discomfort, Subject Count (%)” value ([10]; CD-related, 12 mg, N = 14) of the same compound?
Its value is 0 (0%).

What about the “Constipation, Subject Count (%)” value ([10]; CD-related, 12 mg, N = 14) of the same compound?
The value was 0 (0%).

And the “Flatulence, Subject Count (%)” value ([10]; CD-related, 12 mg, N = 14)?
Its value is 2 (14%).

What about the “Vomiting, Subject Count (%)” value ([10]; CD-related, 12 mg, N = 14) of the same compound?
The value was 3 (21%).

What about the “Diarrhoea, Subject Count (%)” value ([10]; CD-related, 12 mg, N = 14, p 0.017 vs placebo) of the same compound?
The value was 2 (14%).

What about the “Abnormalities in safety laboratory tests, vital signs, ECG, physical examinations” value ([10]; Phase Ib study) of the same compound?
Its value is “no clinically significant abnormalities”.

What about the “Deaths, SAEs, significant AEs, withdrawals due to AEs” value ([10]; Phase Ib study, 21 CD subjects, 12 mg or placebo for three days) of the same compound?
Its value is “no serious adverse events (SAEs); also recorded: no deaths, SAEs, significant AEs, or withdrawals due to AEs”.

What about the “(%) of related AEs” value [10, 18] of the same compound?
The value was “(3) %”.

And the “Number of related AEs” value [10, 18]?
The value was 1.

And the “Dyspepsia, Subject Count (%)” value ([10]; not CD-related, 12 mg, N = 14)?
Its value is 3 (21%).

What about the “Eructation, Subject Count (%)” value ([10]; not CD-related, 12 mg, N = 14) of the same compound?
The value was 1 (7%).

And the “Gastrooesophageal Reflux, Subject Count (%)” value ([10]; not CD-related, 12 mg, N = 14)?
Its value is 1 (7%).

And the “Nausea, Subject Count (%)” value ([10]; not CD-related, 12 mg, N = 14)?
The value was 4 (29%).

And the “Stomach Discomfort, Subject Count (%)” value ([10]; not CD-related, 12 mg, N = 14)?
Its value is 2 (14%).

And the “Structural or numerical chromosome aberrations” value [11]?
Its value is “negative for inducing structural or numerical chromosome aberrations”.

What about the Mutagenic activity [12] of the same compound?
The Mutagenic activity was “negative for mutagenic activity”.

And the “Safety and tolerability of multiple oral doses” value ([13]; Phase IIa patient population)?
The value was “demonstrated”.

What about the Serious adverse events ([13]; Phase IIa, 0.25-8 mg TID 14 days, preliminary observations) of the same compound?
The Serious adverse events was “No Serious Adverse Events (SAEs)”.

What about the “Clinically significant trends related to safety” value [13, 19] of the same compound?
The value was “No Clinically Significant trends related to safety”.

And the “Severity of adverse events” value [13, 19]?
Its value is “mild or moderate in severity”.
